Experiments:
[1] = tested on: MVD7-MENA^INV cells; experiment: Fibronectin fibrillogenesis assay; format: cell-based, mouse; conditions: for MENA-dependent fibronectin fibrillogenesis phenotype compared to the MENA-null control: FIG. 8
Procedure: MENA kinase inhibitors reversed MENA-dependent fibrillogenesis. The ability of the various MENA kinase inhibitors described above to reverse MENA-dependent fibrillogenesis was evaluated in fibronectin fibrillogenesis assays using the […] cell line. Cells were pretreated with MENA kinase inhibitor for 1 hour at the concentrations indicated in FIG. 8 and cultured in medium containing fibronectin-depleted serum supplemented with labeled fibronectin. After 4 hours, fibronectin fibril formation was evaluated by quantitative immunostaining using imageJ software to measure abundance and distribution of fibrillar fibronectin (anova, n=3). The results are plotted relative to control MVD7-GFP cells in FIG. 8.

[2] = tested on: MDA-MB-231-MENA^INV cells; experiment: Wound healing cell migration assay; format: cell-based, human; conditions: 18 hours, fully supplemented medium, without drug 50%
Procedure: MENA kinase inhibitors block MENA-dependent cell migration in a wound-healing assay. The ability of the various MENA kinase inhibitors described above to block MENA-dependent cell migration of MDA-MB-231-MENA^INV cells was assayed using the CySelect™ wound healing assay kit (Cell Biolabs, Inc., San Diego, Calif.). Following the manufacturer's protocol, cells were cultured in fibronectin coated wells until a monolayer formed around the wound insert. The insert was then removed and cells were cultured in the presence of inhibitor at the indicated concentrations in FIG. 9 in fully supplemented medium. After 18 hours the cells were fixed, stained, and evaluated for their capacity to close the wound generated by the insert by fluorescence microscopy.

[3] = tested on: MDA-MB-231-MENA^INV cells; experiment: Matrigel invasion chamber assay (cell invasion and chemotaxis towards EGF); format: cell-based, human; conditions: 18 hours
Procedure: Addition of MENA kinase inhibitors to cells grown in fully supplemented medium reduce the capability of the breast cancer cell line to migrate in the wound healing assay (panels (c)-(h)). Panel (a) represents the wound size at the start of treatment. Cells that were cultured overnight in fully supplemented medium without drug (panel (b)) were able to close 50% of the wound. […] The ability of the various MENA kinase inhibitors described above to inhibit […] tumor cell invasion was tested using the BioCoatTM Matrigel® invasion chamber assay (Corning, Tewksbury, Mass.). […] Inserts were transferred to wells containing basal media (negative control) and the chemoattractant EGF with or without each of the MENA kinase inhibitors. After 18 hours cells that invaded the lower cell surface of the membrane were fixed, stained and evaluated by quantitative immunostaining using imageJ software.

[4] = tested on: MDA-MB-231-MENA^INV cells; experiment: Boyden Chamber cell migration and chemotaxis assay; format: cell-based, human; conditions: 18 hours
Procedure: MENA kinase inhibitors reverse MENA-dependent cell migration and chemotaxis in the Boyden Chamber Assay. […] The fibronectin coated upper chamber were then transferred to wells containing basal media (negative controls) and wells containing basal media, EGF, and MENA kinase inhibitors at the concentrations indicated in FIG. 11. All treatment conditions except the basal negative control used EGF as the chemoattractant. After 18 hours, cells that migrated through the pores toward the chemotattractant were evaluated by quantitative immunostaining using imageJ software as described above. Data were analyzed using anova (n=2) and reported relative to the EGF stimulated cells absent any inhibitor positive control (0) as mean with error of the mean in FIG. 11.

[5] = tested on: MENA kinase-dependent phosphorylation of MENA^INV at Ser144; experiment: Quantitative immunoblot of pSer125/pSer144 MENA/MENA^INV in TNF-alpha stimulated MVD7-MENA^INV cells; format: cell-based, mouse; conditions: FIG. 2
Procedure: Anti-phospho-MENA antibodies specific for the Ser125/Ser144 phosphorylation site in MENA/MENA^INV were produced in animals injected with peptide containing mouse MENA residues 117-133 phosphorylated at Ser125 and conjugated to KLH (Covance Research Products, Denver, Pa.). Purification of pSer125MENA antibody was performed according to the protocol of Archuleta, et al. (Archuleta, Stutzke, Nixon, & Browning, Optimized protocol to make phospho-specific antibodies that work. Methods Mol. Biol. 717:69-88, 2011). Peptides used for purification (phosphorylated peptide: Ac-CKKGPTLPRQN(pS)QLPAQVQN (SEQ ID NO: 32) and dephosphorylated: […] (SEQ ID NO:32)) were prepared by Covance Research Products (BioLegend, San Diego, Calif.) and ThermoScientific, Grand Island, N.Y., respectively. Peptides were coupled to SulfoLink Coupling Resin Column (ThermoScientific) according to manufacturer's instructions. Sera were sequentially passed over column containing dephosphorylated peptide, and then over the column containing phosphorylated peptide. Antibodies bound to second column were eluted using IgG Elution buffer (ThermoScientific).
Phosphorylation of MENA and or MENA isoforms is inhibited by MENA kinase inhibitors from the Ras-Raf-MEK-MAPK/ERK and PI3K-AKT/mTOR pathways. […] Phosphorylation was measured by quantitative immunoblot assays using MENA antibodies specific for the phosphorylation of MENA/MENA^INV at Ser125/Ser144 Cells were stimulated and the MENA kinase was activated through treatment with 10 ng/ml TNF-alpha. […]

[6] = tested on: HSP27 Ser82 phosphorylation site; experiment: Mass spec phosphoproteomic analysis of MAPKAPK2/MK2-dependent phosphorylation; format: cell-based; conditions: doxorubicin treated cells
Description: (§1) The present invention is also based in part on the discovery that the peptide sequence proximal to the serine 125 (Ser125) phosphorylation site of MENA and the equivalent serine 144 (Ser144) phosphorylation site of MENA^INV are potent substrates of the MAPKAPK2/MK2 kinase. Replacement of Ser125 in MENA and or Ser144 in MENA^INV with a non-phosphorylable amino acid changes the peptide substrates to effective peptide inhibitors of the MAPKAPK2/MK2 kinase. […] In doxorubicin treated cells the MENA Ser125 phosphorylation site becomes more heavily phosphorylated (˜8× increase) than the HSP27 Ser82 phosphorylation site (˜2.5× increase). The Ser125/Ser144 serine residue was replaced with a non-phosphorylatable glycine residue to convert the MENA/MENA^INV substrate peptides into effective MENA kinase inhibitors.

[7] = tested on: MENA Ser125 phosphorylation site; experiment: as above; format: cell-based; conditions: doxorubicin treated cells
Description: as §1

[8] = molecular target: MAPKAPK2/MK2 (Homo sapiens, UniProt P49137); conditions: cited from earlier work
MAPKAPK2/MK2, sequence (P49137 whole entry): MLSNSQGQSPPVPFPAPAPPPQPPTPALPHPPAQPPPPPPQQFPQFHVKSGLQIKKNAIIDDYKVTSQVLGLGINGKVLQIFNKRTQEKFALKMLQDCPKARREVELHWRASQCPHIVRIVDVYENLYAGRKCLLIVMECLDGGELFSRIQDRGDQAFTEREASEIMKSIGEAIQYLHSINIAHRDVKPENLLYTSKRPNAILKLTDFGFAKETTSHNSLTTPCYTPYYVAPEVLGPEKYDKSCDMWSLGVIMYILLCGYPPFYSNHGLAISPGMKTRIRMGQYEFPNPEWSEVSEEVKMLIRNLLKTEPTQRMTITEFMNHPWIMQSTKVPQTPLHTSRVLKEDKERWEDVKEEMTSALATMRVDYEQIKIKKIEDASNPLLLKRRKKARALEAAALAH

| Molecule | MENA-dependent fibronectin fibrillogenesis phenotype compared to the MENA-null control [1] | wound closure ([2]; 10 uM) | relative number of cells that invade through Matrigel insert membranes towards EGF ([3]; 10 uM) | MENA-dependent migration/chemotaxis phenotype (cells migrated through fibronectin coated membrane towards EGF) ([4]; 10 uM) | level of phosphorylated MENA^INV ([5]; inhibitor at 1 uM) | further results |
| --- | --- | --- | --- | --- | --- | --- |
| O=c1cc(N2CCOCC2)oc2c(-c3ccccc3)cccc12 [LY294002, 2-morpholin-4-yl-8-phenylchromen-4-one] | significantly reduced | 15% | significantly reduce | significantly reverse | – | – |
| CC(C)(C)Cn1c(N)nc2ccc(-c3[nH]c(C(C)(C)C)nc3-c3ccc(F)cc3)nc21.CS(=O)(=O)O [LY2228820, 5-[2-tert-butyl-4-(4-fluorophenyl)-1H-imidazol-5-yl]-3-(2,2-dimethylpropyl)imidazo[4,5-b]pyridin-2-amine; methanesulfonic acid] | – | 20% | significantly reduce | significantly reverse | significantly reduce | – |
| O=C(NOC[C@H](O)CO)c1ccc(F)c(F)c1Nc1ccc(I)cc1F [PD0325901, N-[(2R)-2,3-dihydroxypropoxy]-3,4-difluoro-2-[(2-fluoro-4-iodophenyl)amino]-benzamide] | significantly reduced | – | – | – | significantly reduce | wound closure ([2]; 1 uM): 15%; relative number of cells that invade through Matrigel insert membranes towards EGF ([3]; 1 uM): significantly reduce; MENA-dependent migration/chemotaxis phenotype (cells migrated through fibronectin coated membrane towards EGF) ([4]; 1 uM): significantly reverse |
| Cc1ccc(-c2ccc3c(ccc4sc5c(c43)NC[C@@H](C)NC5=O)n2)cn1.O [PF-3644022, (10R)-9,10,11,12-tetrahydro-10-methyl-3-(6-methyl-3-pyridinyl)-8H-[1,4]diazepino[5′,6′:4,5]thieno[3,2-f]quinolin-8-one hydrate] | – | 10% | significantly reduce | significantly reverse | – | level of phosphorylated MENA^INV ([5]; inhibitor at 10 uM): significantly reduce |
| COc1cccc2c1C(=O)c1c(O)c3c(c(O)c1C2=O)C[C@@](O)(C(=O)CO)C[C@@H]3O[C@H]1C[C@H](N)[C@H](O)[C@H](C)O1 [doxorubicin] | – | – | – | – | – | increase in phosphorylation of HSP27 Ser82 site [6]: ~2.5 ×; increase in phosphorylation of MENA Ser125 site [7]: ~8 × |
| KKKALHRQLGVAA (MAPKAPK2/MK2 inhibitor derived from HSP25) | significantly reduced | – | – | – | – | MENA-dependent fibronectin fibrillogenesis phenotype ([1]; increasing concentrations, 100 and 300 uM, 4 hours): Dose-dependent reductions; wound closure ([2]; 300 uM): 15%; relative number of cells that invade through Matrigel insert membranes towards EGF ([3]; 100 uM): significantly reduce; relative number of cells that invade through Matrigel insert membranes towards EGF ([3]; 300 uM): significantly reduce; MENA-dependent migration/chemotaxis phenotype (cells migrated through fibronectin coated membrane towards EGF) ([4]; 100 uM): significantly reverse; MENA-dependent migration/chemotaxis phenotype (cells migrated through fibronectin coated membrane towards EGF) ([4]; 300 uM): significantly reverse; inhibition of MAPKAPK2/MK2 [8]: potent inhibitor |

Source: patent US11242406B2, “Methods for the treatment of a cancer or fibrotic disorder associated with MENA or MENA(INV) by administering a map kinase inhibitor” (METASTAT, INC., priority 2016, dated 2022)
